“Also recorded” adds a separate entry of the source.
T1: Pr3 (Homo sapiens, UniProt P24158)
T1 construct: Aliquots of sputum homogenates containing peptidases in the 10 nanomolar range; from tissue; host or cells: sputum of cystic fibrosis patients (crude homogenate in PBS)
T1 sequence (P24158 28-248 limits assumed): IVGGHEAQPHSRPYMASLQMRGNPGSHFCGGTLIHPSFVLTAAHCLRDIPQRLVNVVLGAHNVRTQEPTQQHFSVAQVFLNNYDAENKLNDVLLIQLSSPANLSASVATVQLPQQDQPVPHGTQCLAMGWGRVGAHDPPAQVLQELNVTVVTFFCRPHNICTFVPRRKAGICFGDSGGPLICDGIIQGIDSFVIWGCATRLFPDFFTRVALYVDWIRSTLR

T2: HNE (Homo sapiens, UniProt P08246)
T2 construct: Aliquots of sputum homogenates containing peptidases in the 10 nanomolar range; from tissue; host or cells: sputum of cystic fibrosis patients (crude homogenate in PBS)
T2 sequence (P08246 30-247 limits assumed): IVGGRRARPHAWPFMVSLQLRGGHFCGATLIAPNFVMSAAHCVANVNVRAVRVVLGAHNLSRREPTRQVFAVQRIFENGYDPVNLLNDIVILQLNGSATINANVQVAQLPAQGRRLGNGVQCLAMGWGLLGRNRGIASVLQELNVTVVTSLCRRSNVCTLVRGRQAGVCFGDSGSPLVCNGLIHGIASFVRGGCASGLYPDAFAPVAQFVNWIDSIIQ

T3: CG (Homo sapiens, UniProt P08311)
T3 construct: Aliquots of sputum homogenates containing peptidases in the 10 nanomolar range; from tissue; host or cells: sputum of cystic fibrosis patients (crude homogenate in PBS)
T3 sequence (P08311 21-243 limits assumed): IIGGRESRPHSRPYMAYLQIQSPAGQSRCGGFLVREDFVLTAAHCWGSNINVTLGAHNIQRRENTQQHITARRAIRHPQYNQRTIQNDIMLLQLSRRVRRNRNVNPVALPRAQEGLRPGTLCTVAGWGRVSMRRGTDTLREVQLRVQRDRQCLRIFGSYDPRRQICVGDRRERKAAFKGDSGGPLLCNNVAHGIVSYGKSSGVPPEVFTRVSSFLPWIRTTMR

B1: DNase: DNase, most widely used mucoactive agent for CF patients; comparator (protein, UniProt P24855 23-282, looked up)
Deoxyribonuclease-1: LKIAAFNIQTFGETKMSNATLVSYIVQILSRYDIALVQEVRDSHLTAVGKLLDNLNQDAPDTYHYVVSEPLGRNSYKERYLFVYRPDQVSAVDSYYYDDGCEPCGNDTFNREPAIVRFFSRFTEVREFAIVPLHAAPGDAVAEIDALYDVYLDVQEKWGLEDVMLMGDFNAGCSYVRPSQWSSIRLWTSPTFQWLIPDSADTTATPTHCAYDRIVVAGMLLRGAVVPDSALPFNFQAAYGLSDQLAQAISDHYPVEVMLK

Columns and labels:
[1] = system: neutrophil serine proteases (HNE, Pr3 and CG); assay: Proteases activities and inhibition in CF sputum, overall comparison of treatments; format: biochemical, human; settings: compared with pLK of higher MW (40,000-50,000 Da)
Experimental: (§1) Sputum processing-CF sputum was collected into 50 ml Falcon® tubes by physiotherapy and processed immediately. Sputum was diluted with 3 volumes of PBS per gram and homogenized to obtain a crude homogenate that was kept on ice. An aliquot of each homogenate was incubated for 2 h in low-binding microtubes with 400 μg/ml DNase or with 1.5 mg/ml of poly-L-Lysine (pLK) or PEGylated pLK (PEG-g-pLK) under gentle stirring at room temperature, then layered on a glass slide for cell counting by trypan blue exclusion and visual aspect under the optical microscope. Different sizes of pLK were tested (pLK, HBr of either 500-2,000 Da, 1000-5,000 Da, 4,000-15,000 Da and 40,000-50,000 Da molecular weight). PEG-g-pLK was pLK of 40,000-50,000 Da molecular weight grafted with one mPEG molecule of 5,000 Da.
Proteases activities were measured as described in (26) with the specific FRET (fluorescence resonance energy transfer) substrates of HNE, Pr3 and CG: Abz-APEEIMRRQ-YNO2, Abz-VADnVADQ-EDDnp and Abz-TPFSGQ-YNO2 respectively (λex=320 nm and λem=420 nm). The concentrations of active proteases in biological samples were determined by comparing the rates of hydrolysis of their specific substrates with those of commercial titrated proteases under the same experimental conditions. […]

Beas-2B cells = assay: In vitro cellular toxicity in Beas-2B cell cultures; format: cell-based; settings: in vitro cultures of Beas-2B cells
control mice = format: in vivo, mouse
Excerpt: The objective of the study was to identify the nature and the dose of polycations to be aerosolized safely in control mice.
In vivo assessment of polycations toxicity has been done by cytologic analysis of bronchoalveolar lavage fluids (BALFs), quantification of proinflammatory cytokines (IL6 and KC) and lung anatomopathology.
Aerosol administration of different doses of pLK was done using a Microsprayer®. Mice were killed at day 2 and day 5 and bronchoalveolar lavage fluids (BALF) were obtained with instillation of 5×0.5 mL of sterile PBS into the lungs. Lungs were perfused with 4% formaldehyde for histological studies. Cells were collected after centrifugation of BALFs, suspended in PBS, and analyzed by flow cytometry. The supernatant was used for cytokine quantification using commercially available ELISA kits.

extracellular DNA = assay: Quantification of extracellular DNA in CF sputum; design: species or system human; settings: for amount of extracellular DNA: CF sputum after treatment, EvaGreen
Experimental: as §1
Extracellular DNA is quantified with the non-cell-permeant fluorochrome EvaGreen™ dsDNA reagent (λex=488 nm and λem=520 nm).

Pr3 = target: T1, Pr3; assay: Pr3 activity in whole CF sputa and its inhibition by α1-Pi; format: biochemical; settings: after treatment of whole CF sputum
Experimental: (§2) Proteases activities were measured as described in (26) with the specific FRET (fluorescence resonance energy transfer) substrates of HNE, Pr3 and CG: Abz-APEEIMRRQ-YNO2, Abz-VADnVADQ-EDDnp and Abz-TPFSGQ-YNO2 respectively (λex=320 nm and λem=420 nm). The concentrations of active proteases in biological samples were determined by comparing the rates of hydrolysis of their specific substrates with those of commercial titrated proteases under the same experimental conditions. HNE and Pr3 were titrated as described in (27) and CG was titrated with HNE-titrated recombinant human secretory leukocyte protease inhibitor.
(§3) Aliquots of sputum homogenates containing peptidases in the 10 nanomolar range, were incubated for 30 min at room temperature with increasing amounts of inhibitors up to a (I)/(E) molar ratio of about 40. The low Mr recombinant inhibitor EPI-hNE4 or α1-proteinase inhibitor (α1-Pi) were used to inhibit HNE, while α1-antichymotrypsin (ACT) was used to inhibit CG; Pr3 was inhibited with α1-Pi after samples had been incubated with a 1000-fold molar excess of EPI-hNE4 to avoid the α1-Pi interacting with HNE (8).

[2] = system: P. aeruginosa (strain PAO1); assay: Antimicrobial test and scanning electron microscopy, P. aeruginosa; format: cell-based, Pseudomonas aeruginosa; settings: for bactericidal effect (CFU): 6×10^6 bacteria, 3 h, 150 μl PBS, 110 μg DNase or 2 μg pLK
Experimental: (§4) The bacterial count was determined by the measure of OD600nm.
(§5) 6×10^6 bacteria were incubated in low-binding 96-wells microplates 3 h in 150 μl PBS containing 110 μg of DNase or 2 μg of pLK (MW 40,000-50,000 Da). Aliquots of the media were then collected and serial dilutions in PBS were laid on agar plates. CFUs were numbered after incubation at 37° C. Extracellular DNA in the remaining media was quantified as previously described as a marker of bacterial wall permeability.
(§6) 6×10^6 bacteria were settled on polylysine-coated glass slides and treated (or not) with DNase or pLK (pLK of 40,000-50,000 Da). They were then fixed with 1% (v/v) glutaraldehyde and 4% (v/v) paraformaldehyde in 0.1 M PBS, pH 7.4, post-fixed in 2% (v/v) osmium tetroxide, dehydrated in a graded acetone series, dried to the critical point using carbon dioxide, and sputter coated with platinum.

HNE = target: T2, HNE; assay: HNE activity in whole CF sputa and its inhibition by exogenous inhibitors; format: biochemical; settings: after treatment of whole CF sputum
Experimental: as §2, §3

[3] = system: S. aureus (strain CIP 103811); assay: Antimicrobial test and scanning electron microscopy, S. aureus; format: cell-based, Staphylococcus aureus; settings: for bactericidal effect (CFU): 6×10^6 bacteria, 3 h, 150 μl PBS, 110 μg DNase or 2 μg pLK
Experimental: as §4, §5, §6

CF sputum = CF sputum homogenate treatment: visual aspect and cell counting; design: species or system human; settings: for morphological aspect of the sputum after treatment: CF sputum homogenate, 2 h, 400 μg/ml DNase or 1.5 mg/ml pLK
Experimental: as §1
The increased viscosity of mucus in the CF lung leads to lung obstruction and subsequent decrease in lung function. Because DNA is a major component of CF lung secretions that contributes to their viscosity, rhDNase has been used for long by CF patients as a liquefying expectorant (28). A possible other mean to fluidize lung secretions could be through the condensation of extracellular DNA by positively charged polymers. We checked this hypothesis using poly-L-lysine (pLK) and comparing the rheological properties of CF sputa before and after treatment by pLK. Then we compared the results with those obtained using DNase in the same conditions.

CG = target: T3, CG; assay: CG activity in whole CF sputa and its inhibition by ACT; format: biochemical; settings: after treatment of whole CF sputum
Experimental: as §2, §3

[4] = aerosol 2.4 mg/kg (66 μg in 50 μL, about 130 μM), Mann-Whitney test

| Molecule | amount of extracellular DNA (extracellular DNA) | activity of PR3 (Pr3) | inhibition of PR3 by α1-Pi (Pr3) | bactericidal effect (CFU) [2] | morphology of the bacteria (scanning electron microscopy) ([2]; P. aeruginosa) | elastase activity in whole sputum (HNE) | inhibition of elastase activity by elastase inhibitors (α1-Pi) (HNE) | bactericidal effect (CFU) [3] | morphology of the bacteria (scanning electron microscopy) ([3]; S. aureus) | morphological aspect of the sputum after treatment (CF sputum) | CG inhibition by ACT (CG) | other results |
| --- | --- | --- | --- | --- | --- | --- | --- | --- | --- | --- | --- | --- |
| poly-L-lysine [pLK 500-2,000 Da] |  |  |  |  |  |  |  |  |  |  |  | efficiency of pLK of different sizes [1]: far less efficient |
| poly-L-lysine [pLK (4-15 kDa)] |  |  |  |  |  |  |  |  |  |  |  | efficiency of pLK of different sizes ([1]; listed as pLK 4,000-15,000 Da): same results as those with higher MW; cellular toxicity (Beas-2B cells): can be observed; in vitro toxicity threshold (Beas-2B cells): 5 µM; BALF cellularity, treated vs control mice (control mice; [4]): no significant differences; cytokines quantification (IL6 and KC) in BALF, treated vs control mice (control mice; [4]): no significant differences; broncho-interstitial inflammation (histological study) (control mice; aerosol 2.4 mg/kg, day 2, both in treated and in control groups): minimal broncho-interstitial inflammation; lung lesion (histological study) (control mice; aerosol 2.4 mg/kg, day 2 and day 5): no lung lesion |
| poly-L-lysine [pLK] | important decrease | Neither pLK nor DNase treatments significantly affected | Neither pLK nor DNase treatments significantly affected | significant bactericidal effect | significant modification of the morphology; also recorded: spiculated surface | dramatic increase; also recorded: increase of elastase activity | stoichiometrically inhibited | significant bactericidal effect | less marked | fractionation of the sputum in dense aggregates and a very fluid phase | significantly improved | DNA degradation in treated sputum (extracellular DNA; extracellular content restored after addition of dextran sulfate): not degraded; bacterial wall permeabilization (extracellular DNA, non-cell permeant fluorophore) ([2]; P. aeruginosa): disruption of the bacterial wall; bacterial wall permeabilization (extracellular DNA, non-cell permeant fluorophore) ([3]; S. aureus): no wall permeabilization; apparent cell count in sputum homogenate (CF sputum; trypan blue exclusion, neutrophils found in aggregates): apparent decrease |
| B1 | important decrease | Neither pLK nor DNase treatments significantly affected | Neither pLK nor DNase treatments significantly affected | no antimicrobial properties | nor it affected the morphology | dramatic increase; also recorded: increase of elastase activity | completely and stoichiometrically inhibited | no antimicrobial properties | nor it affected the morphology | no morphological change | pLK, unlike DNase, significantly improved |  |

Source: patent US20150174193A1, “AGENTS FOR TREATING CYSTIC FIBROSIS” (INSERM, priority 2012, published 2015)
